Test results from article PMC12196347, “Evaluating Triazole-Substituted Pyrrolopyrimidines as CSF1R Inhibitors” (Molecules, 2025).
Like-named read-outs stand apart in the source and are kept apart here.

Assays:
EPHA2 = target: T1, EPHA2 (Homo sapiens, UniProt P29317); test: Kinase panel profiling: EPHA2; assay type: biochemical; conditions: ATP equal to KM
T1 construct: purchased Thermo Fisher Scientific (Invitrogen) SelectScreen (Z'-LYTE)

ITK = target: T2, ITK (Homo sapiens, UniProt Q08881); test: Kinase panel profiling: ITK; assay type: biochemical; conditions: ATP equal to KM
T2 construct: purchased Thermo Fisher Scientific (Invitrogen) SelectScreen (Z'-LYTE)
T2 sequence (Q08881 1-620): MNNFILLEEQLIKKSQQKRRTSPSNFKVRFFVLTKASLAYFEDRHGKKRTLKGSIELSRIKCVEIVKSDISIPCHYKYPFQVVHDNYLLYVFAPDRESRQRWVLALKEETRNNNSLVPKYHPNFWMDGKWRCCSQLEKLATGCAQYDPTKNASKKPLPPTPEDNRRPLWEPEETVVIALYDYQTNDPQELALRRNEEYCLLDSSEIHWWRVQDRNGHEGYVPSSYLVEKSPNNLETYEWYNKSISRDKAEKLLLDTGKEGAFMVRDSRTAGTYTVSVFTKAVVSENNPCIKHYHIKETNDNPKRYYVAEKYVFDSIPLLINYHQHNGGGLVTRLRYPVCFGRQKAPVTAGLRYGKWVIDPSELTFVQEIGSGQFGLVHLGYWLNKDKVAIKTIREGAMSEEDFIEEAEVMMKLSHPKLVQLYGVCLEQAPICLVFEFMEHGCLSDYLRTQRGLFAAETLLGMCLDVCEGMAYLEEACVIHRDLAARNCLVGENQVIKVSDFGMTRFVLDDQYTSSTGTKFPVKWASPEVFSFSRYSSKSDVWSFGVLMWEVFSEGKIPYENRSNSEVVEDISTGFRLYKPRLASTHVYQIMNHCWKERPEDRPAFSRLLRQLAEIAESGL

AXL = target: T3, AXL (Homo sapiens, UniProt P30530); test: Kinase panel profiling: AXL; assay type: biochemical; conditions: ATP equal to KM
T3 construct: purchased Thermo Fisher Scientific (Invitrogen) SelectScreen (Z'-LYTE)

FLT4 (VEGFR3) = target: T4, FLT4 (VEGFR3) (Homo sapiens, UniProt P35916); test: Kinase panel profiling: FLT4; assay type: biochemical; conditions: ATP equal to KM
T4 construct: purchased Thermo Fisher Scientific (Invitrogen) SelectScreen (Z'-LYTE)
T4 sequence (P35916 25-1363): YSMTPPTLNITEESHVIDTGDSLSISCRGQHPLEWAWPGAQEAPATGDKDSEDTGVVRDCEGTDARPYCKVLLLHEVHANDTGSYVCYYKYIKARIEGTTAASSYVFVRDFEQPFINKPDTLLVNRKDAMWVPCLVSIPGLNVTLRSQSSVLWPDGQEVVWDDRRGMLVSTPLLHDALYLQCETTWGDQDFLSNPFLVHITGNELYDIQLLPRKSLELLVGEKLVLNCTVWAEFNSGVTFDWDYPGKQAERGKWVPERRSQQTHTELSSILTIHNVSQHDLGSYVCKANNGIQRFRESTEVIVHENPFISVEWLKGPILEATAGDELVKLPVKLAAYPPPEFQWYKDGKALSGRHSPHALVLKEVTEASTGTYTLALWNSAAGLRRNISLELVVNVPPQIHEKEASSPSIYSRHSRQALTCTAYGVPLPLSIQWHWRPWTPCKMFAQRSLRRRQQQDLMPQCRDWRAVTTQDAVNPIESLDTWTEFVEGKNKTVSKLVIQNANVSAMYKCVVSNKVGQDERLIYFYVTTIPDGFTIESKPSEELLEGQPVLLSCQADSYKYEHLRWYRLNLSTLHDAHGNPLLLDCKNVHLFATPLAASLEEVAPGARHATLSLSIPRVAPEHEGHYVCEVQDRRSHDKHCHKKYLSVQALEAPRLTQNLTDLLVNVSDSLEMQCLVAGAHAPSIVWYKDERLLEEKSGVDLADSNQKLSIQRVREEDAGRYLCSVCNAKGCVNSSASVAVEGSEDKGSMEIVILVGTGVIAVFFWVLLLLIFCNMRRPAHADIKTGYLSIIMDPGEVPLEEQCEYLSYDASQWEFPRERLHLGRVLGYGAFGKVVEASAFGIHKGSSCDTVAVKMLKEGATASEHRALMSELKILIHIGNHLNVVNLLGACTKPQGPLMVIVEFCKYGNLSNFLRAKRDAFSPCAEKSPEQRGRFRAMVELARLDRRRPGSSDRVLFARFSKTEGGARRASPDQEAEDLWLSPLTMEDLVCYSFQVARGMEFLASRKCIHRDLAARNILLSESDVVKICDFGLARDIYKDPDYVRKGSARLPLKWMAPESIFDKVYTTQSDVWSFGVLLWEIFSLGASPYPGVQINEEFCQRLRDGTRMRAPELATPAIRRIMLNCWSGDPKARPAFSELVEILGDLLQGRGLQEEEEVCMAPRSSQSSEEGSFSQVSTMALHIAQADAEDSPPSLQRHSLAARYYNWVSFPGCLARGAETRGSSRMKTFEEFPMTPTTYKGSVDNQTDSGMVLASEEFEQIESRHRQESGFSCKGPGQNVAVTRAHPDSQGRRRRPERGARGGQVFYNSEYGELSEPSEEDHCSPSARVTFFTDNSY

[1] = tested on: IL-3 dependent Ba/F3 cell line (CSF1R independent); test: Control assay for cellular toxicity, Ba/F3 cells dependent on IL-3; assay type: cell-based; conditions: Mus musculus, BaF3; Ba/F3 cells dependent on IL-3, control for cellular toxicity
RET = RET (Homo sapiens, UniProt P07949); test: Kinase panel profiling: RET; assay type: biochemical; conditions: ATP equal to KM
Chain of RET (P07949 29-1114): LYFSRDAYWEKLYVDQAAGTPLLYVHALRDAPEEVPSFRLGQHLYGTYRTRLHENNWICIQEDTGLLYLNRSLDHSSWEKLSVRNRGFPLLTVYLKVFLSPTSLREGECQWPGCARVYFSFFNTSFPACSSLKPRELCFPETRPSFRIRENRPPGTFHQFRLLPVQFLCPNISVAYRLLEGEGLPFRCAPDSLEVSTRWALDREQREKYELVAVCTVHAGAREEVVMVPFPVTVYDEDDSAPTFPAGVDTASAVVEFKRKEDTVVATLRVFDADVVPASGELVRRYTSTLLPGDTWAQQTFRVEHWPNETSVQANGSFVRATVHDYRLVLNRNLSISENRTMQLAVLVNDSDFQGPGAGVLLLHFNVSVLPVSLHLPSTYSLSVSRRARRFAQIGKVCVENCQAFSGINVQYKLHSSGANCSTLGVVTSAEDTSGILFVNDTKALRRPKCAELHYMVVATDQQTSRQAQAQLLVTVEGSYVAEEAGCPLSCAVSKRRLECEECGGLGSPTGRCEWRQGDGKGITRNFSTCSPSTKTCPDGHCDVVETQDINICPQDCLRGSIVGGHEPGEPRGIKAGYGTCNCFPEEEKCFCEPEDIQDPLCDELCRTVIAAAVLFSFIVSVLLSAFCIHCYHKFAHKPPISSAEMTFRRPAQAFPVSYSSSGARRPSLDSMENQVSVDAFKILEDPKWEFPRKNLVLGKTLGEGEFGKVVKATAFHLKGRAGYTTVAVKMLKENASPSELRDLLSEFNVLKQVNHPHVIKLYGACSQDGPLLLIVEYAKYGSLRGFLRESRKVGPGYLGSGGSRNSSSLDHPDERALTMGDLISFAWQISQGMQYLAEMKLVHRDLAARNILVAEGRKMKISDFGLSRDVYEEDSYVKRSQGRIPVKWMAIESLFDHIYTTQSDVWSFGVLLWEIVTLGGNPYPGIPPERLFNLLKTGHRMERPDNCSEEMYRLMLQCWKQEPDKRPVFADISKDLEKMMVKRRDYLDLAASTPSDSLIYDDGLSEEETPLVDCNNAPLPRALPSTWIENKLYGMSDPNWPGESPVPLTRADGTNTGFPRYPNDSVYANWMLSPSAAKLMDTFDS

AURKB (Aurora B) = target: T5, AURKB (Aurora B) (Homo sapiens, UniProt Q96GD4); test: Kinase panel profiling: AURKB; assay type: biochemical; conditions: ATP equal to KM
T5 construct: purchased Thermo Fisher Scientific (Invitrogen) SelectScreen (Z'-LYTE)
T5 sequence (Q96GD4 whole entry): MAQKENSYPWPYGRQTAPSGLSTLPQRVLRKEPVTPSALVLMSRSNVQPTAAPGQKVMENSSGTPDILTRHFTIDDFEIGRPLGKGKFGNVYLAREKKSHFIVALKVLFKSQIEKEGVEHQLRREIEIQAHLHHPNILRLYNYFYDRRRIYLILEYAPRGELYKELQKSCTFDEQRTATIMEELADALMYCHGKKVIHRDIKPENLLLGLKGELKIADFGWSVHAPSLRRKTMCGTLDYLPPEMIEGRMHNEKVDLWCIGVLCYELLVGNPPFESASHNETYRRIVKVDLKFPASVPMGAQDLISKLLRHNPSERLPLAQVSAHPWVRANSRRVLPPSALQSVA

[2] = Mouse liver microsome intrinsic clearance, Phase I; assay type: in vitro ADME; conditions: in vitro intrinsic clearance
ABL2 (Arg) = target: T6, ABL2 (Arg) (Homo sapiens, UniProt P42684); test: Kinase panel profiling: ABL2; assay type: biochemical; conditions: ATP equal to KM
T6 construct: purchased Thermo Fisher Scientific (Invitrogen) SelectScreen (Z'-LYTE)

CSF1R = CSF1R (Homo sapiens, UniProt P07333); test: CSF1R enzymatic IC50, Z-LYTE assay platform; assay type: biochemical
MUSK = target: T7, MUSK (Homo sapiens, UniProt O15146); test: Kinase panel profiling: MUSK; assay type: biochemical; conditions: ATP equal to KM
T7 construct: purchased Thermo Fisher Scientific (Invitrogen) SelectScreen (Z'-LYTE)
T7 sequence (O15146 24-869): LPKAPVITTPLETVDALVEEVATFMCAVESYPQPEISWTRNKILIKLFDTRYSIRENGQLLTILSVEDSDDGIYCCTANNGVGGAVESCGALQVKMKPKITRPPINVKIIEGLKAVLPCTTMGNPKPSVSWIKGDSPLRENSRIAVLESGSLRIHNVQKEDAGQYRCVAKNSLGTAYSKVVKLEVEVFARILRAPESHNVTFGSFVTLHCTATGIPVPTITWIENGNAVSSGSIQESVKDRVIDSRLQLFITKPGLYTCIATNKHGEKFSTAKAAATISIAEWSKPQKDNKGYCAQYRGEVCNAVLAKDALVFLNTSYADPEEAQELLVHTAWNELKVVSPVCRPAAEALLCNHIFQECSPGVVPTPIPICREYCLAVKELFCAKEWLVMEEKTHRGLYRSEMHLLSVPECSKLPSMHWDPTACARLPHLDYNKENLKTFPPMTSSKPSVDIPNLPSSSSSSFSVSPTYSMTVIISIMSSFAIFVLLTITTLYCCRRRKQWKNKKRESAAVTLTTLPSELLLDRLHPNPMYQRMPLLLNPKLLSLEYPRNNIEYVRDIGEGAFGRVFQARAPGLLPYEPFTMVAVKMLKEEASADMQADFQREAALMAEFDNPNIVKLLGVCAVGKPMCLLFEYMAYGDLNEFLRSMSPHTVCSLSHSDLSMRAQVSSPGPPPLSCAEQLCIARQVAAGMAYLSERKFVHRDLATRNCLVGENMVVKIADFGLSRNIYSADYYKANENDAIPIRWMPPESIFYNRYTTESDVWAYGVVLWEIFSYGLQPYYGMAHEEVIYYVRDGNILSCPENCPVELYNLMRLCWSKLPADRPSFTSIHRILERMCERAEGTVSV

ERBB2 (HER2) = target: T8, ERBB2 (HER2) (Homo sapiens, UniProt P04626); test: Kinase panel profiling: ERBB2; assay type: biochemical; conditions: ATP equal to KM
T8 construct: purchased Thermo Fisher Scientific (Invitrogen) SelectScreen (Z'-LYTE)
T8 sequence (P04626 23-1255): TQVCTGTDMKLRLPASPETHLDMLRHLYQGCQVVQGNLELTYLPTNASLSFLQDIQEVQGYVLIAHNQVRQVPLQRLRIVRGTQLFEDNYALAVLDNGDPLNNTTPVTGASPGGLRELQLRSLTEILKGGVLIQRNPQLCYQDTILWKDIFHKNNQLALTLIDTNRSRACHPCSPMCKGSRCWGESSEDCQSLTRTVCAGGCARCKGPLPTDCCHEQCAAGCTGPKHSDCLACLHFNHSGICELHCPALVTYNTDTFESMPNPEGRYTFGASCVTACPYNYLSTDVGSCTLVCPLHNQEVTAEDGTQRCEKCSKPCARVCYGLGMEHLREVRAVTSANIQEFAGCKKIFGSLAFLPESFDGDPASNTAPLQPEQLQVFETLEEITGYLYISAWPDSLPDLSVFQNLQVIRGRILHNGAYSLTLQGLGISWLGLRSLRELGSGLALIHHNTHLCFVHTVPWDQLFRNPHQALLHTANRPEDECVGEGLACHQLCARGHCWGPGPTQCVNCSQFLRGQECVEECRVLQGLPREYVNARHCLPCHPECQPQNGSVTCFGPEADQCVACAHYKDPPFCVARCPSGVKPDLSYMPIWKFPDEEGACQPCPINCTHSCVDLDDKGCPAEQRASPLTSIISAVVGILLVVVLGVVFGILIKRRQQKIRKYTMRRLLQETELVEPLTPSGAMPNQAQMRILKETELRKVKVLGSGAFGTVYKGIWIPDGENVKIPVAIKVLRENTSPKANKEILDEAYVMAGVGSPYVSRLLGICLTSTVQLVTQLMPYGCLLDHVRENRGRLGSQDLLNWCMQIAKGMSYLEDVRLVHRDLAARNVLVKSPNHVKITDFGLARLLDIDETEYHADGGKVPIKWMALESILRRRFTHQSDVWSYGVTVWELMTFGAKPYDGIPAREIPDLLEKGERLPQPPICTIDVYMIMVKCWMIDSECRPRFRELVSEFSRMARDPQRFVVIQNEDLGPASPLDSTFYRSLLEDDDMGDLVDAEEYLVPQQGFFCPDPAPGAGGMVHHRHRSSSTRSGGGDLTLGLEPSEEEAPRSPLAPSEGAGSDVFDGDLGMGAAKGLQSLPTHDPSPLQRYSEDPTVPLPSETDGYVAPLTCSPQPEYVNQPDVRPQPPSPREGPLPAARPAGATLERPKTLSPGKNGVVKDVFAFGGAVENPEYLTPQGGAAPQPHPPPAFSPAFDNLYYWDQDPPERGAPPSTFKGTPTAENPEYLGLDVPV

cKIT kinase = target: T9, cKIT kinase (Homo sapiens, UniProt P10721); test: KIT inhibition (KD), TR-FRET tracer displacement; assay type: binding; conditions: kinase tracer 236, anti-GST antibody Eu-conjugate, read-out: KIT enz. KD
T9 construct: purchased Carna Biosciences

DYRK1A = target: T10, DYRK1A (Homo sapiens, UniProt Q13627); test: Kinase panel profiling: DYRK1A; assay type: biochemical; conditions: ATP equal to KM
T10 construct: purchased Thermo Fisher Scientific (Invitrogen) SelectScreen (Z'-LYTE)

CSF1R (FMS) = target: T11, CSF1R (FMS) (Homo sapiens, UniProt P07333); test: Kinase panel profiling: CSF1R; assay type: biochemical; conditions: ATP equal to KM
T11 construct: purchased Thermo Fisher Scientific (Invitrogen) SelectScreen (Z'-LYTE)

[3] = 1000 nM test concentration, read-out: Average inhibition (%)
[4] = 1000 nM, first data point, read-out: Inhibition (%)
[5] = 1000 nM, second data point, read-out: Inhibition (%)

T1 sequence (P29317 24-976): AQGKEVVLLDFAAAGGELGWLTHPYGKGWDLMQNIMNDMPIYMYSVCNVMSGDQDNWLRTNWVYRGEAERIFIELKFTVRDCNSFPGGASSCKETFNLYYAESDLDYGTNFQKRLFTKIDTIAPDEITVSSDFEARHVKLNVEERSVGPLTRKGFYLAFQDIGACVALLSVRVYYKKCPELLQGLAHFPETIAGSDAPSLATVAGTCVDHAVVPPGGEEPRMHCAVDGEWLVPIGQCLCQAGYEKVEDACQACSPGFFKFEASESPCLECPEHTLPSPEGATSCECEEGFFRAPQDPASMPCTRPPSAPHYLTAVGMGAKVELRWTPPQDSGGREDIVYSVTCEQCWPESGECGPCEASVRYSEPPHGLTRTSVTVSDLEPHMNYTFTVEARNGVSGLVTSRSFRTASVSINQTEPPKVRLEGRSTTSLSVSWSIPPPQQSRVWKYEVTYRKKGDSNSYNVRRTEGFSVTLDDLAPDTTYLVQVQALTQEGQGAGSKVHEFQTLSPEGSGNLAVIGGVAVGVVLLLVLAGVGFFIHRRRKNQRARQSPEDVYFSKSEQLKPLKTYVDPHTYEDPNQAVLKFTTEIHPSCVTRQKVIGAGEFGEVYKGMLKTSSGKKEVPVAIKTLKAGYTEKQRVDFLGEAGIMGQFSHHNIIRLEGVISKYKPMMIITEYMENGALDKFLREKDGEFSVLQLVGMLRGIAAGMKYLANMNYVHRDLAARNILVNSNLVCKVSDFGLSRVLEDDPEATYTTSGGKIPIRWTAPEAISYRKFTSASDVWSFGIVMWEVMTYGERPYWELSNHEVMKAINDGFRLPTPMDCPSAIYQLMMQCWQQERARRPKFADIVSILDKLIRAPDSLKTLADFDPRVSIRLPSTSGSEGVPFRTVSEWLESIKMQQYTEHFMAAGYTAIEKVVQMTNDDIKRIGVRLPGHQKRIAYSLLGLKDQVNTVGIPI

In the case of `Cc1cccc(CN(C)c2ncnc3[nH]c(-c4cn(Cc5cccnc5)nn4)cc23)c1` [Compound 27a, N-Methyl-N-(3-methylbenzyl)-6-(1-(pyridin-3-ylmethyl)-1H-1,2,3-triazol-4-yl)-7H-pyrrolo[2,3-d]pyrimidin-4-amine], the inhibition at 1 µM (EPHA2; [3]) is reported as 89%, the inhibition at 1 µM (EPHA2; [4]) is reported as 88% and the inhibition at 1 µM (EPHA2; [5]) is reported as 91%. The inhibition at 1 µM (ITK; [3]) was 55%, the inhibition at 1 µM (ITK; [4]) was 58% and the inhibition at 1 µM (ITK; [5]) was 51%. It also gave an inhibition at 1 µM (AXL; [3]) of 16%, an inhibition at 1 µM (AXL; [4]) of 16% and an inhibition at 1 µM (FLT4 (VEGFR3); [3]) of 16%. The inhibition at 1 µM (FLT4 (VEGFR3); [4]) was 15%, the inhibition at 1 µM (FLT4 (VEGFR3); [5]) was 16% and the IC50 [1] was > 10000 nM. For the same molecule, the inhibition at 1 µM (RET; [3]) was 29%, the inhibition at 1 µM (RET; [4]) was 28% and the inhibition at 1 µM (RET; [5]) was 30%. For the same molecule, the inhibition at 1 µM (AURKB (Aurora B); [3]) was 47%, the inhibition at 1 µM (AURKB (Aurora B); [4]) was 47% and the inhibition at 1 µM (AURKB (Aurora B); [5]) was 46%. For the same molecule, the MLM [2] was 295 µL/min/mg, the inhibition at 1 µM (ABL2 (Arg); [3]) was 100% and the inhibition at 1 µM (ABL2 (Arg); [4]) was 100%. It also gave a Hill coefficient (CSF1R; Z-LYTE CSF1R IC50 curve) of 0.903, an IC50 (CSF1R; Z-LYTE, 10-point titrations in duplicates, ATP equal to KM ca. 10 µM, read-out: CSF1R enz. IC50) of 0.4 ± 0.2 nM and an inhibition at 1 µM (MUSK; [3]) of 72%. It also gave an inhibition at 1 µM (MUSK; [4]) of 73%, an inhibition at 1 µM (MUSK; [5]) of 72% and an inhibition at 1 µM (ERBB2 (HER2); [3]) of 32%. It also gave an inhibition at 1 µM (ERBB2 (HER2); [4]) of 33%, an inhibition at 1 µM (ERBB2 (HER2); [5]) of 32% and a Kd (cKIT kinase) of 793 nM. It also gave an inhibition at 1 µM (DYRK1A; [3]) of 5%, an inhibition at 1 µM (DYRK1A; [4]) of 5% and an inhibition at 1 µM (DYRK1A; [5]) of 4%. It also gave an inhibition at 1 µM (CSF1R (FMS); [3]) of 99% and an inhibition at 1 µM (CSF1R (FMS); [4]) of 99%.
